In US9113629B2, “4-amino-6-(4-substituted-phenyl)-picolinates and 6-amino-2-(4-substituted-phenyl)-pyrimidine-4-carboxylates and their use as herbicides” (DOW AGROSCIENCES LLC, priority 2013, dated 2015):
Like-named read-outs stand apart in the source and are kept apart here.

Key:
[1] = test system: Key Broadleaf Weed and Crop Species; test: Post-emergent Test II herbicidal activity (Table 5); format: in vivo; conditions: post-emergence, 336 h, 14 days after application; for pest or weed control at 70 g/ha: application rate 70 g ai/ha; for pest or weed control at 140 g/ha: application rate 140 g ai/ha
How it was run: (§1)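 Visual injury ratings (0 = no injury, 100 = complete kill) were taken 14 d after treatment, relative to untreated plants. Seedlings at the first–second true leaf stage received overhead spray at 187 L/ha; the highest rate was serially diluted to ½×, ¼×, ⅛× and 1/16×.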

[2] = test system: Key Grass and Sedge Weeds as well as Grass Crops; test: Post-emergent Test II herbicidal activity (Table 6); format: in vivo; conditions: post-emergence, 336 h
How it was run: as §1

[3] = ABUTH: velvetleaf (Abutilon theophrasti), read-out: Visual Growth Reduction (%) 14 Days After Application, ABUTH
[4] = AMARE: redroot pigweed (Amaranthus retroflexus), read-out: Visual Growth Reduction (%) 14 Days After Application, AMARE
[5] = BRSNN: oilseed-rape, canola (Brassica napus), read-out: Visual Growth Reduction (%) 14 Days After Application, BRSNN
[6] = CHEAL: lambsquarters (Chenopodium album), read-out: Visual Growth Reduction (%) 14 Days After Application, CHEAL
[7] = EPHHL: wild poinsettia (Euphorbia heterophylla), read-out: Visual Growth Reduction (%) 14 Days After Application, EPHHL
[8] = HELAN: sunflower (Helianthus annuus), read-out: Visual Growth Reduction (%) 14 Days After Application, HELAN
[9] = VIOTR: wild pansy (Viola tricolor), read-out: Visual Growth Reduction (%) 14 Days After Application, VIOTR
[10] = CYPES: yellow nutsedge (Cyperus esculentus), 70 g ai/ha, read-out: Visual Growth Reduction (%) 14 Days After Application, CYPES
[11] = CYPES: yellow nutsedge (Cyperus esculentus), 140 g ai/ha, read-out: Visual Growth Reduction (%) 14 Days After Application, CYPES
[12] = DIGSA: crabgrass (Digitaria sanguinalis), 70 g ai/ha, read-out: Visual Growth Reduction (%) 14 Days After Application, DIGSA
[13] = DIGSA: crabgrass (Digitaria sanguinalis), 140 g ai/ha, read-out: Visual Growth Reduction (%) 14 Days After Application, DIGSA
[14] = ECHCG: barnyardgrass (Echinochloa crus-galli), 70 g ai/ha, read-out: Visual Growth Reduction (%) 14 Days After Application, ECHCG
[15] = ECHCG: barnyardgrass (Echinochloa crus-galli), 140 g ai/ha, read-out: Visual Growth Reduction (%) 14 Days After Application, ECHCG
[16] = ORYSA: rice (Oryza sativa), crop, 70 g ai/ha, read-out: Visual Growth Reduction (%) 14 Days After Application, ORYSA
[17] = ORYSA: rice (Oryza sativa), crop, 140 g ai/ha, read-out: Visual Growth Reduction (%) 14 Days After Application, ORYSA
[18] = SETFA: giant foxtail (Setaria faberi), 70 g ai/ha, read-out: Visual Growth Reduction (%) 14 Days After Application, SETFA
[19] = SETFA: giant foxtail (Setaria faberi), 140 g ai/ha, read-out: Visual Growth Reduction (%) 14 Days After Application, SETFA
[20] = SORVU: grain sorghum (Sorghum vulgare), 70 g ai/ha, read-out: Visual Growth Reduction (%) 14 Days After Application, SORVU
[21] = SORVU: grain sorghum (Sorghum vulgare), 140 g ai/ha, read-out: Visual Growth Reduction (%) 14 Days After Application, SORVU
[22] = TRZSS (wheat, Triticum aestivum), crop, 70 g ai/ha, read-out: Visual Growth Reduction (%) 14 Days After Application, TRZSS
[23] = TRZSS (wheat, Triticum aestivum), crop, 140 g ai/ha, read-out: Visual Growth Reduction (%) 14 Days After Application, TRZSS
[24] = ZEAMX: maize, corn (Zea mays), crop, 70 g ai/ha, read-out: Visual Growth Reduction (%) 14 Days After Application, ZEAMX
[25] = ZEAMX: maize, corn (Zea mays), crop, 140 g ai/ha, read-out: Visual Growth Reduction (%) 14 Days After Application, ZEAMX

COC(=O)c1nc(-c2ccc(Br)cc2F)nc(N)c1OC [Compound 35]
0 to 29%: pest or weed control at 70 g/ha [2, 16] | pest or weed control at 140 g/ha [2, 17] | pest or weed control at 70 g/ha [2, 18]
95 to 100%: pest or weed control at 70 g/ha [1, 3] | pest or weed control at 140 g/ha [1, 3] | pest or weed control at 140 g/ha [1, 4] | pest or weed control at 70 g/ha [1, 5] | pest or weed control at 140 g/ha [1, 5] | pest or weed control at 70 g/ha [1, 6] | pest or weed control at 140 g/ha [1, 6] | pest or weed control at 70 g/ha [1, 7] | pest or weed control at 140 g/ha [1, 7] | pest or weed control at 70 g/ha [1, 8] | pest or weed control at 140 g/ha [1, 8] | pest or weed control at 140 g/ha [1, 9] | pest or weed control at 70 g/ha [2, 10] | pest or weed control at 140 g/ha [2, 11] | pest or weed control at 70 g/ha [2, 24] | pest or weed control at 140 g/ha [2, 25]
163 to 165 °C: melting point
75 to 84%: pest or weed control at 70 g/ha [1, 4]
45 to 59%: pest or weed control at 70 g/ha [2, 12] | pest or weed control at 140 g/ha [2, 19] | pest or weed control at 70 g/ha [2, 20] | pest or weed control at 140 g/ha [2, 23]
60 to 74%: pest or weed control at 140 g/ha [2, 21]
85 to 94%: pest or weed control at 70 g/ha [1, 9] | pest or weed control at 140 g/ha [2, 13] | pest or weed control at 140 g/ha [2, 15]
30 to 44%: pest or weed control at 70 g/ha [2, 14] | pest or weed control at 70 g/ha [2, 22]

Nc1cc(-c2ccc(I)c(F)c2F)nc(C(=O)O)c1Cl [Compound 38]
75 to 84%: pest or weed control at 70 g/ha [1, 8] | pest or weed control at 70 g/ha ([2]; DIGSA: crabgrass (Digitaria sanguinalis), application rate 70 g ai/ha, read-out: Visual Growth Reduction (%) 14 Days After Application, DIGSA) | pest or weed control at 140 g/ha ([2]; DIGSA: crabgrass (Digitaria sanguinalis), application rate 140 g ai/ha, read-out: Visual Growth Reduction (%) 14 Days After Application, DIGSA)
60 to 74%: pest or weed control at 70 g/ha ([2]; Triticum aestivum, TRZSS (wheat), application rate 70 g ai/ha, read-out: Visual Growth Reduction (%) 14 Days After Application, TRZSS) | pest or weed control at 140 g/ha ([2]; Triticum aestivum, TRZSS (wheat), application rate 140 g ai/ha, read-out: Visual Growth Reduction (%) 14 Days After Application, TRZSS)
288 to 293 °C (dec.): melting point
95 to 100%: pest or weed control at 70 g/ha [1, 3] | pest or weed control at 140 g/ha [1, 3] | pest or weed control at 140 g/ha [1, 4] | pest or weed control at 70 g/ha [1, 5] | pest or weed control at 140 g/ha [1, 5] | pest or weed control at 140 g/ha [1, 6] | pest or weed control at 70 g/ha [1, 7] | pest or weed control at 140 g/ha [1, 7] | pest or weed control at 70 g/ha [1, 9] | pest or weed control at 140 g/ha [1, 9] | pest or weed control at 70 g/ha ([2]; CYPES: yellow nutsedge (Cyperus esculentus), application rate 70 g ai/ha, read-out: Visual Growth Reduction (%) 14 Days After Application, CYPES) | pest or weed control at 140 g/ha ([2]; CYPES: yellow nutsedge (Cyperus esculentus), application rate 140 g ai/ha, read-out: Visual Growth Reduction (%) 14 Days After Application, CYPES) | pest or weed control at 70 g/ha ([2]; ECHCG: barnyardgrass (Echinochloa crus-galli), application rate 70 g ai/ha, read-out: Visual Growth Reduction (%) 14 Days After Application, ECHCG) | pest or weed control at 140 g/ha ([2]; ECHCG: barnyardgrass (Echinochloa crus-galli), application rate 140 g ai/ha, read-out: Visual Growth Reduction (%) 14 Days After Application, ECHCG) | pest or weed control at 70 g/ha ([2]; SETFA: giant foxtail (Setaria faberi), application rate 70 g ai/ha, read-out: Visual Growth Reduction (%) 14 Days After Application, SETFA) | pest or weed control at 140 g/ha ([2]; SETFA: giant foxtail (Setaria faberi), application rate 140 g ai/ha, read-out: Visual Growth Reduction (%) 14 Days After Application, SETFA) | pest or weed control at 140 g/ha ([2]; ZEAMX: maize, corn (Zea mays), application rate 140 g ai/ha, read-out: Visual Growth Reduction (%) 14 Days After Application, ZEAMX)
85 to 94%: pest or weed control at 70 g/ha [1, 4] | pest or weed control at 70 g/ha [1, 6] | pest or weed control at 140 g/ha [1, 8] | pest or weed control at 70 g/ha ([2]; SORVU: grain sorghum (Sorghum vulgare), application rate 70 g ai/ha, read-out: Visual Growth Reduction (%) 14 Days After Application, SORVU) | pest or weed control at 140 g/ha ([2]; SORVU: grain sorghum (Sorghum vulgare), application rate 140 g ai/ha, read-out: Visual Growth Reduction (%) 14 Days After Application, SORVU) | pest or weed control at 70 g/ha ([2]; ZEAMX: maize, corn (Zea mays), application rate 70 g ai/ha, read-out: Visual Growth Reduction (%) 14 Days After Application, ZEAMX)
0 to 29%: pest or weed control at 70 g/ha ([2]; ORYSA: rice (Oryza sativa), application rate 70 g ai/ha, read-out: Visual Growth Reduction (%) 14 Days After Application, ORYSA) | pest or weed control at 140 g/ha ([2]; ORYSA: rice (Oryza sativa), application rate 140 g ai/ha, read-out: Visual Growth Reduction (%) 14 Days After Application, ORYSA)

C#Cc1ccc(-c2nc(N)c(OC)c(C(=O)O)n2)c(F)c1 [Compound 41]
0 to 29%: pest or weed control at 70 g/ha [1, 3] | pest or weed control at 140 g/ha [1, 3] | pest or weed control at 70 g/ha [1, 4] | pest or weed control at 140 g/ha [1, 4] | pest or weed control at 70 g/ha [1, 5] | pest or weed control at 70 g/ha [1, 6] | pest or weed control at 70 g/ha [1, 7] | pest or weed control at 140 g/ha [1, 7] | pest or weed control at 70 g/ha [1, 9] | pest or weed control at 140 g/ha [1, 9] | pest or weed control at 70 g/ha [2, 10] | pest or weed control at 140 g/ha [2, 11] | pest or weed control at 70 g/ha [2, 12] | pest or weed control at 140 g/ha [2, 13] | pest or weed control at 70 g/ha [2, 14] | pest or weed control at 140 g/ha [2, 15] | pest or weed control at 70 g/ha [2, 16] | pest or weed control at 140 g/ha [2, 17] | pest or weed control at 70 g/ha [2, 18] | pest or weed control at 140 g/ha [2, 19] | pest or weed control at 70 g/ha [2, 20] | pest or weed control at 140 g/ha [2, 21] | pest or weed control at 70 g/ha [2, 22] | pest or weed control at 140 g/ha [2, 23] | pest or weed control at 70 g/ha [2, 24] | pest or weed control at 140 g/ha [2, 25]
75 to 84%: pest or weed control at 140 g/ha [1, 8]
45 to 59%: pest or weed control at 140 g/ha [1, 5]
60 to 74%: pest or weed control at 140 g/ha [1, 6] | pest or weed control at 70 g/ha [1, 8]
155 to 165 °C (dec.): melting point
